The source of these data is patent US8940325B2, “Use of synthetic polysulphated oligosaccharides as cleaning agents for a wound” (Laboratories Urgo, priority 2010, dated 2015).

Each structure is given as a SMILES string.

In the experiment the target is T1, fibrin matrix (Homo sapiens, UniProt P02671+P02675+P02679).
T1 construct: 15 mg of human plasma fibrinogen (Sigma-Aldrich Catalog); purchased Sigma-Aldrich; host or cells: human plasma
T1 sequence (P02671 20-644 isoform P02671-2 limits assumed): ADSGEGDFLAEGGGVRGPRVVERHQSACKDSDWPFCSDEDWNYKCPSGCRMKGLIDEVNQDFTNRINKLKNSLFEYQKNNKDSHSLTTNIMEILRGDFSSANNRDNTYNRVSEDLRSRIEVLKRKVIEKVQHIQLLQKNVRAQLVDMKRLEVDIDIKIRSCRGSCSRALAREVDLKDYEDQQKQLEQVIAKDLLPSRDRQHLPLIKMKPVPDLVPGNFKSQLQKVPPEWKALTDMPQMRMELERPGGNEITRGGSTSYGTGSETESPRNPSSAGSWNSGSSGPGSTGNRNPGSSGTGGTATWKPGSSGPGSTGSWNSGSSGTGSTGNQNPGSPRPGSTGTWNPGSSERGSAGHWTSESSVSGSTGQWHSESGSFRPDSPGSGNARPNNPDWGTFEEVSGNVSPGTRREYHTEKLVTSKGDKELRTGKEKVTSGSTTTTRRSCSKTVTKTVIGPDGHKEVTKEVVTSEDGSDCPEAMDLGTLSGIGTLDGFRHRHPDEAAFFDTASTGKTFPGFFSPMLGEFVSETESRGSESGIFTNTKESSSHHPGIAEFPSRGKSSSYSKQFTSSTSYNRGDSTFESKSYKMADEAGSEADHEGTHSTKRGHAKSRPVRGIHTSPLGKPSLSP
T1 sequence (P02675 45-491 limits assumed): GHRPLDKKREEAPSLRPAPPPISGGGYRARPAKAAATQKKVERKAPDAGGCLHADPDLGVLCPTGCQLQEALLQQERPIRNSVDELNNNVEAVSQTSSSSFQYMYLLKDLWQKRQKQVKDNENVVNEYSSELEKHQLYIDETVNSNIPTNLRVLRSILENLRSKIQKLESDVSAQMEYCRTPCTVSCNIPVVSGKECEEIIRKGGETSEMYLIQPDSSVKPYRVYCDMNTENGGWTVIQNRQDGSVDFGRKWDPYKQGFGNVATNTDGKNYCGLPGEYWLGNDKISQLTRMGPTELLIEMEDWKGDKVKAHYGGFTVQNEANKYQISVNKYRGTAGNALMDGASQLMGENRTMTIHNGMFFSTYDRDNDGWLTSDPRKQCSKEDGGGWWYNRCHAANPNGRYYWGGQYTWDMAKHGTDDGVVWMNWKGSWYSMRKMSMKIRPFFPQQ
T1 sequence (P02679 27-437 isoform P02679-2 limits assumed): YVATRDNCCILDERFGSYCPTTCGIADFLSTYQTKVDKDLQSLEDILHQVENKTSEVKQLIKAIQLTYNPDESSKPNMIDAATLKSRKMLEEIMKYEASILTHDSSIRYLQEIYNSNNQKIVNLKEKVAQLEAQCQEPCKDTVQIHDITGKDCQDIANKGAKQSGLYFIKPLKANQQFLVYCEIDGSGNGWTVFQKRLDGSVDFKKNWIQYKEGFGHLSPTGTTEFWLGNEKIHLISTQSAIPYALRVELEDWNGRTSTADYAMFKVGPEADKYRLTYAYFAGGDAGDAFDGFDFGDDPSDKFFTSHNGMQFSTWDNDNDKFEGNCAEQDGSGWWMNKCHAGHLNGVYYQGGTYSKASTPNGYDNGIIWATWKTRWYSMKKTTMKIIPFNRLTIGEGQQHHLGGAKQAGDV
The experiment is described as follows: Degradation of fibrin matrix prepared in vitro (visual observation and PDF determination). In kind it is biochemical. The following applies: solution at 10 g/l, 48 hours. How it is done: The fibrin matrices were prepared according to Brown's protocol described in the work “Fibroblast migration in fibrin gel matrices” Am J. Pathol, 1993, 142: 273-283.
The following were dissolved at 37° C.: • 5 ml of an aqueous solution comprising 50 millimoles of Hepes (Sigma-Aldrich Catalog) • 15 mg of human plasma fibrinogen (Sigma-Aldrich Catalog) • 5 millimoles of CaCl2.
50 μl of thrombin, 100 NIH of human plasma (Sigma-Aldrich Catalog) were added to the solution thus prepared.
The reaction mixture was mixed, put in a 15-ml tube (or a Petri dish of 60 mm diameter) and then left to incubate at 37° C.
During the first 24 hours of incubation at 37° C., a fibrin matrix which has roughly the appearance of a gel was seen to appear.
In parallel, a control solution was prepared free from the test compound with phosphate-buffered saline (PBS).
The degradation of the fibrin matrix was monitored visually over the next 24 and 48 hours. […]
In order to quantify and verify that the observations made do indeed correspond to degradation of the fibrin matrix, the products of degradation of fibrin (PDFs) were determined 24 hours or 48 hours after adding the solutions of the test compound. […]
This solution was tested according to the protocol described above and the PDFs were measured 48 hours after adding the solution to the fibrin matrix. […]

Regarding `O=S(=O)([O-])OC[C@H]1O[C@@](COS(=O)(=O)[O-])(O[C@H]2O[C@H](COS(=O)(=O)[O-])[C@@H](OS(=O)(=O)[O-])[C@H](OS(=O)(=O)[O-])[C@H]2OS(=O)(=O)[O-])[C@@H](OS(=O)(=O)[O-])[C@@H]1OS(=O)(=O)[O-].[K+].[K+].[K+].[K+].[K+].[K+].[K+].[K+]` [potassium salt of sucrose octasulfate], the “degradation of the fibrin matrix (level)” value was “partial degradation (if the value of the PDFs, expressed in μg/ml, is between 5 and 20, there is partial degradation of the fibrin matrix)”.
